Paper PMC6264731, “Chemo-Enzymatic Synthesis of Ester-Linked Docetaxel-Monosaccharide Conjugates as Water-Soluble Prodrugs” (Molecules, 2011)
In brackets after ≈: the same amount, converted by molar mass. Read-outs that look alike come from different tables or passages of the source.

Tests used:
[1] = Water-solubility, stirred in water 24 h at 25 °C, HPLC quantification; assay type: physicochemical
Procedure: The mixture was centrifuged at 100,000 g for 30 min at 25 °C. The concentration of test compounds was estimated on the basis of their peak areas using calibration curves prepared by HPLC analyses of authentic samples.

[2] = tested on: KB human cancer cells; assay: MTT cytotoxicity assay in KB cells; assay type: cell-based; settings: 24 h treatment
Procedure: (§1) The sensitivity of KB and MCF-7 cells to docetaxel or 4–6 was determined according to the previously reported method. Cells were diluted with culture medium to the seeding density (10^5 cells/mL), suspended in 96-well tissue culture plates (100 μL/well), preincubated at 37 °C for 4 h, and then treated for 24 h with docetaxel or 4–6 at various concentrations to obtain a dose–response curve for each compound. After incubation, 20 μL MTT solution (2.5 mg/mL) was added to each well and the plates were further incubated for 4 h. Absorbance at 570 nm was measured with a microplate reader model 450 (BIO-RAD). Dose-response curves were plotted on a semi-log scale as percentage of the cell numbers in control cultures not exposed to test compounds.

[3] = tested on: MCF-7 human cancer cells; assay: MTT cytotoxicity assay in MCF-7 cells; assay type: cell-based; settings: for IC50 MCF-7 cells: 24 h treatment
Procedure: as §1

[4] = tested on: KB human cancer cells; assay: Hydrolysis of prodrugs by KB cells, release of docetaxel (HPLC); assay type: cell-based; settings: 5 μmol compound, 20 mg KB cells in RPMI 1640, 37 °C, 24 h
Procedure: To a 5-mL vial containing RPMI 1640 medium (1 mL, Nissui Pharmaceutical Co. Ltd.) and KB cells (20 mg) was added 5 μmol of each compound. The mixture was incubated at 37 °C for 24 h. The cells and medium were separated by centrifugation at 10,000 g for 5 min. The cells were extracted with MeOH. MeOH extract was concentrated, and the residue was partitioned between H2O and CH2Cl2. The medium was extracted with CH2Cl2. The CH2Cl2 fractions were combined, concentrated, and analyzed by HPLC. The yield of docetaxel was calculated on the basis of the peak area from HPLC using a calibration curve provided by HPLC analyses of authentic docetaxel.

Compound: 7-propionyldocetaxel 3''-O-β-D-galactopyranoside [Compound 5]
- solubility at 24 h [1]: 25.5 µM
- IC50 KB cells [2]: 41 µg/mL
- IC50 MCF-7 cells [3]: 28 µg/mL
- Conversion to docetaxel (hydrolysis by KB cells) [4]: 45%

Compound: 7-propionyldocetaxel 3''-O-β-D-xylopyranoside [Compound 6]
- solubility at 24 h [1]: 20.2 µM
- IC50 KB cells [2]: 25 µg/mL
- IC50 MCF-7 cells [3]: 12 µg/mL
- Conversion to docetaxel (hydrolysis by KB cells) [4]: 76%

Compound: CC(=O)O[C@@]12CO[C@@H]1C[C@H](O)[C@@]1(C)C(=O)[C@H](O)C3=C(C)[C@@H](OC(=O)[C@H](O)[C@@H](NC(=O)OC(C)(C)C)c4ccccc4)C[C@@](O)([C@@H](OC(=O)c4ccccc4)[C@H]21)C3(C)C [Docetaxel]
- Fold (water-solubility relative to docetaxel) ([1]; relative to docetaxel): 1 fold
- solubility at 24 h ([1]; thermodynamic from solid): 0.5 µM (≈ 0.404 µg/mL)
- IC50 ([2]; Homo sapiens): 12 µg/mL (≈ 14.9 µM)
- IC50 ([3]; Homo sapiens, MCF7, 24 h treatment): 5 µg/mL (≈ 6.19 µM)
